Test results taken from patent publication US20080076740A1, “Antiviral compounds” (GILEAD SCIENCES, INC., priority 2005, published 2008).
Where two headings read alike, the source gives them in different places.

Key:
Caco-2 permeability = format: in vitro ADME
Pharmacokinetics in dog = format: in vivo; settings: for clearance: in vivo, read-out: Cl Dog (converted)
Pharmacokinetics in rat = format: in vivo; settings: for clearance: in vivo, read-out: Cl Rat (converted)
Strand Transfer = Strand Transfer (Human immunodeficiency virus type 1 group M subtype B, UniProt P04585); test: Integrase strand transfer inhibition; format: biochemical, HIV
in vitro = settings: human
HIV [1] = test: Anti-HIV activity in MT4 cells; format: cell-based; settings: Human immunodeficiency virus 1
[2] = Cytotoxicity in MT4 cells; settings: human
[3] = Phosphonate prodrugs in vivo summary (pharmacokinetics); settings: species not given
[4] = In vitro PBMC loading rate; format: in vitro ADME; settings: human
From the text: In one embodiment, the invention is provides compounds capable of accumulating in human PBMC (peripheral blood mononuclear cells). PBMC refer to blood cells having round lymphocytes and monocytes. Physiologically, PBMC are critical components of the mechanism against infection. PBMC may be isolated from heparinized whole blood of normal healthy donors or buffy coats, by standard density gradient centrifugation and harvested from the interface, washed (e.g. phosphate-buffered saline) and stored in freezing medium. PBMC may be cultured in multi-well plates. At various times of culture, supernatant may be either removed for assessment, or cells may be harvested and analyzed (Smith R. etal (2003) Blood 102(7):2532-2540). The compounds of this embodiment may further comprise a phosphonate or phosphonate prodrug. More typically, the phosphonate or phosphonate prodrug can have the structure A^3 as described herein.

[5] = Hepatocyte stability, human; settings: hepatocytes
[6] = Hepatocyte stability, dog; settings: hepatocytes
HIV [7] = test: Antiviral activity in MT-2 cells; format: cell-based
[8] = human, Caco-2 studies, read-out: Papp

Compound	(head line blank) [3]	F [3]	Vdβ [3]	In vitro PBMC Loading Rate [4]	half-life [5]	half-life [6]	also measured
O=C(NCc1ccccn1)c1c2c(c(O)c3ncccc13)C(=O)N(Cc1ccc(F)cc1)C2 [Compound 2001]							Papp (Caco-2 permeability; [8]): 5 ×10⁻⁶ cm/s; F Dog (Pharmacokinetics in dog): 28%; Vdb Dog (Pharmacokinetics in dog): 0.8 L/kg; clearance (Pharmacokinetics in dog): 1.17 mL/min/kg; F Rat (Pharmacokinetics in rat): 2%; Vdb Rat (Pharmacokinetics in rat): 8.2 L/kg; clearance (Pharmacokinetics in rat): 183 mL/min/kg
CCOP(=O)(COc1c2c(c(O)c3ncccc13)C(=O)N(Cc1ccc(F)cc1)C2)OCC [Compound 2002]							IC50 (Strand Transfer; read-out: IC50 Strand Transfer): < 600 nM; CC50 (in vitro): < 5000 nM; EC50 (HIV [1]): < 20 nM
CCOP(=O)(CN1CCN(C(=O)Oc2c3c(c(O)c4ncccc24)C(=O)N(Cc2ccc(F)cc2)C3)CC1)OCC [Compound 2003]							IC50 (Strand Transfer): < 600 nM; CC50 [2]: < 5000 nM; EC50 (HIV [1]): < 20 nM
COP(=O)(CCN1CCN(C(=O)Oc2c3c(c(O)c4ncccc24)C(=O)N(Cc2ccc(F)cc2)C3)CC1)OC [Compound 2004]							IC50 (Strand Transfer): < 600 nM; CC50 [2]: < 5000 nM; EC50 (HIV [1]): < 20 nM
CCOC(=O)[C@H](C)OP(=O)(CCN1CCN(C(=O)Oc2c3c(c(O)c4ncccc24)C(=O)N(Cc2ccc(F)cc2)C3)CC1)Oc1ccccc1 (some centres unmarked) [Compound 2005]	60 mL/min/kg	3%	10.8 L/kg	5291 nM/h	1.65 h	1.07 h	IC50 (Strand Transfer): < 1200 nM; CC50 [2]: < 5000 nM; EC50 (HIV [1]): < 20 nM
CCOC(=O)[C@H](C)NP(=O)(CCNC(=O)c1c2c(c(O)c3ncccc13)C(=O)N(Cc1ccc(F)cc1)C2)Oc1ccccc1 (some centres unmarked) [Compound 2006]	15 mL/min/kg	BLQ	0.7 L/kh	7830 nM/h	1.63 h	1.73 h	
CCOC(=O)[C@H](C)NP(=O)(CCNC(=O)c1c2c(c(O)c3ncccc13)C(=O)N(Cc1ccc(F)cc1)C2)N[C@@H](C)C(=O)OCC [Compound 2007]	58.3 mL/min/kg		4 L/kg		2.65 h	3.23 h	Papp (Caco-2 permeability; Caco-2): BQL
CCOC(=O)C(C)NP(=O)(CCN(C)C(=O)c1c2c(c(O)c3ncccc13)C(=O)N(Cc1ccc(F)cc1)C2)Oc1ccccc1 (centres unmarked) [Compound 2008]	15 mL/min/kg	0.5%	1.8 L/kg	19551 nM/h	1.95 h	0.733 h	Papp (Caco-2 permeability; human, Caco-2, read-out: Papp): 0.1 ×10⁻⁶ cm/s
CCOC(=O)[C@H](C)NP(=O)(CCN(C)C(=O)c1c2c(c(O)c3ncccc13)C(=O)N(Cc1ccc(F)cc1)C2)OCC(F)(F)F (some centres unmarked) [Compound 2009]	43.3 mL/min/kg	7%	3 L/kg			1.22 h	Papp (Caco-2 permeability; human, Caco-2, read-out: Papp): 1 to 4 ×10⁻⁶ cm/s
CCOC(=O)[C@H](C)OP(=O)(CCN1CCN(C(=O)c2c3c(c(O)c4ncccc24)C(=O)N(Cc2ccc(F)cc2)C3)CC1)Oc1ccccc1 (some centres unmarked) [Compound 2011]	76.7 mL/min/kg	0.3%	9.1 L/kg	4810 nM/h	1.4 h	0.733 h	
CCOC(=O)[C@H](C)NP(=O)(CCCN(C)C(=O)c1c2c(c(O)c3ncccc13)C(=O)N(Cc1ccc(F)cc1)C2)Oc1ccccc1 (some centres unmarked) [Compound 2012]	12 mL/min/kg	0.2%	0.7 L/kh	4831 nM/h	2.57 h	0.767 h	Papp (Caco-2 permeability; Caco-2): BQL
CCOC(=O)[C@H](C)NP(=O)(CO[C@H](C)CNC(=O)c1c2c(c(O)c3ncccc13)C(=O)N(Cc1ccc(F)cc1)C2)Oc1ccccc1 (some centres unmarked) [Compound 2013]	15 mL/min/kg		4 L/kg	5774 nM/h	1.33 h	0.883 h	Papp (Caco-2 permeability; Caco-2): BQL
CCOC(=O)[C@H](C)OP(=O)(CCNC(=O)c1c2c(c(O)c3ncccc13)C(=O)N(Cc1ccc(F)cc1)C2)Oc1ccccc1 (some centres unmarked) [Compound 2014]	16.7 mL/min/kg	0.04%	1.1 L/kg				
CCOC(=O)[C@H](C)NP(=O)(CCN1CCN(C(=O)c2c3c(c(O)c4ncccc24)C(=O)N(Cc2ccc(F)cc2)C3)CC1)Oc1ccccc1 (some centres unmarked) [Compound 2015]	13 mL/min/kg		0.8 L/kh				
CCOC(=O)[C@H](C)NP(=O)(CCCNC(=O)c1c2c(c(O)c3ncccc13)C(=O)N(Cc1ccc(F)cc1)C2)Oc1ccccc1 (some centres unmarked) [Compound 2016]	6.7 mL/min/kg		0.7 L/kh				
CCOC(=O)[C@H](C)NP(=O)(CCN(C)C(=O)c1c2c(c(O)c3ncccc13)C(=O)N(Cc1ccc(F)cc1)C2)OCC(F)(F)F (some centres unmarked) [Compound 2017]							EC50 (HIV [7]): 1 nM
CCOC(=O)[C@H](C)NP(=O)(CCN(C)C(=O)c1c2c(c(O)c3ncccc13)C(=O)N(Cc1ccc(F)cc1)C2)OCC(F)(F)F (some centres unmarked) [Compound 2018]							EC50 (HIV [7]): 0.1 nM
CCOP(=O)(CNC(=O)CCSC1c2c(c(O)c3ncccc3c2OC)C(=O)N1Cc1ccc(F)cc1)OCC (centres unmarked) [Compound 2021]							IC50 (Strand Transfer; read-out: IC50 Strand Transfer): < 1200 nM; CC50 (in vitro): < 50000 nM; EC50 (HIV [1]): < 500 nM
O=C(NCc1ccc(F)cc1)c1nc(N2CCCCS2(=O)=O)c2cccnc2c1O [Compound L-870810, reference compound]							Papp (Caco-2 permeability; [8]): 40 ×10⁻⁶ cm/s; F Dog (Pharmacokinetics in dog): 50%; Vdb Dog (Pharmacokinetics in dog): 0.5 L/kg; clearance (Pharmacokinetics in dog): 1.17 mL/min/kg; F Rat (Pharmacokinetics in rat): 42%; Vdb Rat (Pharmacokinetics in rat): 0.72 L/kg; clearance (Pharmacokinetics in rat): 1.5 mL/min/kg
